Results from ChEMBL document CHEMBL4742385 (2019).

How the values were obtained:
[1] = target: CDK8/Cyclin C (Homo sapiens) (UniProt P49336+P24863); test: Inhibition of human CDK8/Cyc C expressed in Sf21 cells at 1 uM measured after 1 hr by fluorescence plate reader relative to control
[2] = target: Cyclin-C/Cyclin-dependent kinase 19 (Homo sapiens) (UniProt Q9BWU1+P24863); test: Inhibition of humanGST-tagged CDK19/Cyc C expressed in Sf21 cells at 1 uM measured after 1 hr by fluorescence plate reader relative to control
RPMI-8226 = test: Antiproliferative activity against human RPMI-8226 assessed as inhibition of cell growth at 1 uM after 8 days measured after Celltiter-Glo assay relative to control; type: functional; conditions: Homo sapiens, RPMI-8226, 192 h, time 8 day

Row | Compound | inhibition [1] [%] | inhibition [2] [%] | inhibition at 1 µM (RPMI-8226) [%]
1 | Cn1cc(-c2ccncc2/C=C/C(=O)Nc2ccc(CC(F)(F)F)cc2)cn1 | 99 | 92 | 60
2 | Cn1cc(-c2ccncc2/C=C/C(=O)Nc2ccc(CN3CCOCC3)cc2)cn1 | 100 | 98 | 60
3 | Cn1cnc2ccc(-c3c(F)cncc3/C=C/C(=O)Nc3ccc(CN4CC(F)(F)C4)cc3)cc21 | 87 | 101 | 67
4 | Cn1cc(-c2ccc(NC(=O)/C=C/c3cnccc3-c3cnn(C4CC4)c3)cc2)cn1 | 92 | 97 | 58
5 | Cn1cc(-c2ccncc2/C=C/C(=O)Nc2ccc3cnccc3c2)cn1 | 96 | 99 | 62
6 | Cn1cc(-c2ccncc2/C=C/C(=O)Nc2ccc(CN3CCOCC3)c(F)c2)cn1 | 99 | 97 | 62
7 | Cn1cc(-c2ccncc2/C=C/C(=O)Nc2ccc(Oc3ccncc3)cc2)cn1 | 95 | 96 | 54
8 | Cn1cc(-c2ccncc2/C=C/C(=O)Nc2ccc(CNCC(F)(F)C(F)(F)F)cc2)cn1 | 101 | 99 | 56
9 | O=C(/C=C/c1cnccc1-c1cncs1)Nc1ccc(CN2CCOCC2)cc1 | 94 | 97 | 52
10 | Cn1cc(-c2ccncc2/C=C/C(=O)Nc2ccc(N3CC(F)(F)C3)cc2)cn1 | 105 | 99 | 50
11 | Cn1cc2cc(-c3ccncc3/C=C/C(=O)Nc3ccc(CN4CCOCC4)cc3)ccc2n1 | 97 | 93 | 52
12 | O=C(/C=C/c1cnccc1-c1cn[nH]c1)Nc1ccc(CN2CCOCC2)cc1 | 100 | 99 | 61
13 | Cn1cc(-c2ccncc2/C=C/C(=O)Nc2cccc(-c3cccnc3)c2)cn1 | 84 | 78 | 58
14 | Cn1cc(-c2ccncc2/C=C/C(=O)Nc2ccc(CN3CC(F)(F)OC(F)(F)C3)cc2)cn1 | 97 | 98 | 55
15 | O=C(/C=C/c1cnccc1-c1cnn2ccccc12)Nc1ccc(CN2CCOCC2)cc1 | 98 | 97 | 55
16 | Cc1cc(NC(=O)/C=C/c2cnccc2-c2cnn(C)c2)ccc1CN1CCOCC1 | 96 | 98 | 58
17 | O=C(/C=C/c1cnccc1-c1cccs1)Nc1ccc(CCc2nnco2)cc1 | 101 | 100 | 59
18 | Cn1cc(-c2ccncc2/C=C/C(=O)Nc2ccc(CC#N)cc2)cn1 | 92 | 95 | 57
19 | Cn1cc(-c2ccncc2/C=C/C(=O)Nc2ccc(N3CCOCC3)c(Cl)c2)cn1 | 102 | 100 | 60
20 | Cn1cc(-c2c(F)cncc2/C=C/C(=O)Nc2ccc3c(c2)CN(CC(F)(F)F)C3)cn1 | 106 | 104 | 56

Row | Compound | inhibition [1] [%] | inhibition [2] [%] | inhibition at 1 µM (RPMI-8226) [%]
21 | Cn1cc(-c2ccncc2/C=C/C(=O)Nc2ccc3ccncc3c2)cn1 | 94 | 94 | 55
22 | Cn1cnc2ccc(-c3ccncc3/C=C/C(=O)Nc3ccc(CN4CCOCC4)cc3)cc21 | 102 | 102 | 65
23 | O=C(/C=C/c1cnccc1-c1cnn(Cc2ccccc2)c1)Nc1ccc(CN2CCOCC2)cc1 | 101 | 101 | 63
24 | Cn1cc(-c2ccncc2/C=C/C(=O)Nc2ccc(CCN3CCOCC3)cc2)cn1 | 96 | 101 | 59
25 | Cn1cc(-c2ccncc2/C=C/C(=O)Nc2ccc(Cn3cccn3)cc2)cn1 | 102 | 97 | 53
26 | Cn1cc(-c2ccncc2/C=C/C(=O)Nc2ccc(CCC(F)(F)F)cc2)cn1 | 98 | 99 | 53
27 | C[C@@H]1CN(Cc2ccc(NC(=O)/C=C/c3cnccc3-c3cnn(C)c3)cc2)C[C@H](C)O1 | 101 | 97 | 58
28 | COc1ccc(-c2ccncc2/C=C/C(=O)Nc2ccc(CN3CCOCC3)cc2)s1 | 93 | 96 | 58
29 | Cn1cc(-c2ccncc2/C=C/C(=O)Nc2ccc(CN3CC4CCC(C3)O4)cc2)cn1 | 96 | 97 | 61
30 | O=C(/C=C/c1cnccc1-c1cnn(C2CC2)c1)Nc1ccc(C2CC2)cc1 | 95 | 89 | 53
31 | O=C(/C=C/c1cnccc1-c1cnn(C2CCC2)c1)Nc1ccc(CN2CCOCC2)cc1 | 96 | 96 | 54
32 | Cn1cc(-c2ccncc2/C=C/C(=O)Nc2ccc(CN3CCN4CCCC4C3)cc2)cn1 (stereo not given) | 100 | 74 | 59
33 | Cc1cc(NC(=O)/C=C/c2cnccc2-c2cnn(C3CC3)c2)ccc1CN1CCOCC1 | 98 | 99 | 62
34 | COC(C)(C)Cc1ccc(NC(=O)/C=C/c2cnccc2-c2cnn(C3CC3)c2)cc1 | 101 | 94 | 67
35 | CC1CN(Cc2ccc(NC(=O)/C=C/c3cnccc3-c3cnn(C4CC4)c3)cc2)C1 | 102 | 97 | 55
36 | Cn1cc(-c2ccncc2/C=C/C(=O)Nc2ccc3c(c2)OCC3)cn1 | 100 | 94 | 55
37 | O=C(/C=C/c1cnccc1-c1ccc2[nH]ncc2c1)Nc1ccc(CN2CCOCC2)cc1 | 96 | 97 | 55
38 | O=C(/C=C/c1cnccc1-c1ccc2ncn(CC3CC3)c2c1)Nc1ccc(CN2CCOCC2)cc1 | 95 | 96 | 60
39 | O=C(/C=C/c1cncc(F)c1-c1cnn(C2CC2)c1)Nc1ccc2c(c1)OCCO2 | 103 | 98 | 65
40 | O=C(/C=C/c1cnccc1-c1cnn(C2CC2)c1)Nc1ccc2c(c1)CN(CC(F)(F)F)C2 | 103 | 101 | 47

Row | Compound | inhibition [1] [%] | inhibition [2] [%] | inhibition at 1 µM (RPMI-8226) [%]
41 | Cn1cc(-c2ccncc2/C=C/C(=O)Nc2ccc3c(c2)CN(CC(F)F)C3)cn1 | 105 | 94 | 63
42 | Cn1cc(-c2ccncc2/C=C/C(=O)Nc2ccc(CN3CCCC3CO)cc2)cn1 (stereo not given) | 104 | 93 | 52
43 | Cn1cc(-c2c(F)cncc2/C=C/C(=O)Nc2ccc3c(c2)CN(CC(C)(F)F)C3)cn1 | 106 | 100 | 63
44 | COc1ncc(-c2ccncc2/C=C/C(=O)Nc2ccc(CN3CCOCC3)cc2)s1 | 99 | 98 | 63
45 | COc1ncc(-c2ccncc2/C=C/C(=O)Nc2ccc(CN3CCOCC3)cc2F)s1 | 99 | 96 | 63
46 | Cn1cc(-c2ccncc2/C=C/C(=O)Nc2ccc(CNC3CC3)cc2)cn1 | 95 | 96 | 56
47 | Cn1cc(-c2ccncc2/C=C/C(=O)Nc2ccc(CN3CCOCC3)c(C#N)c2)cn1 | 100 | 99 | 54
48 | O=C(/C=C/c1cnccc1-c1cnn(C2CC2)c1)Nc1ccc(CN2CC3(COC3)C2)cc1 | 110 | 98 | 56
49 | O=C(/C=C/c1cnccc1-c1cnn(C2CC2)c1)Nc1ccc2c(ccn2CC(F)(F)F)c1 | 99 | 98 | 57
50 | O=C(/C=C/c1cnccc1-c1cnn(C2CC2)c1)Nc1ccc2c(c1)CN(CC(F)(F)CO)C2 | 102 | 96 | 65
51 | Cn1ccc2cc(NC(=O)/C=C/c3cnccc3-c3cnn(C4CC4)c3)ccc21 | 100 | 97 | 61
52 | O=C(/C=C/c1cnccc1-c1cnn(C(F)F)c1)Nc1ccc(CN2CCOCC2)cc1 | 98 | 100 | 53
53 | CN1CCc2ccc(NC(=O)/C=C/c3cnccc3-c3cnn(C)c3)cc2C1 | 100 | 98 | 52
54 | Cn1cc(-c2ccncc2/C=C/C(=O)Nc2ccc3c(c2)CCC3=O)cn1 | 92 | 87 | 54
55 | O=C(/C=C/c1cnccc1-c1cnn(CC2CC2)c1)Nc1ccc(CN2CCOCC2)cc1 | 98 | 99 | 55
56 | COCCn1cnc2ccc(-c3ccncc3/C=C/C(=O)Nc3ccc(CN4CCOCC4)cc3)cc21 | 103 | 97 | 62
57 | O=C(/C=C/c1cnccc1-c1cnn(C2CC2)c1)Nc1ccc(COC(F)F)cc1 | 97 | 93 | 52
58 | COCCOc1ccc(NC(=O)/C=C/c2cnccc2-c2cnn(C)c2)cc1 | 98 | 97 | 62
59 | Cc1ccc(NC(=O)/C=C/c2cnccc2-c2cn[nH]c2)c(F)c1 | 100 | 97 | 59
60 | O=C(/C=C/c1cnccc1-c1cnn(Cc2ccccn2)c1)Nc1ccc(CN2CCOCC2)cc1 | 101 | 98 | 57
